Results reported in paper PMC13421293 (Thrombosis and Haemostasis, 2025).

What was measured:
[1] = system: canine platelet; set-up: method as in PMID 5554584; conditions: commonly used concentrations; cited from earlier work
[2] = system: platelet reactivity; test: Platelet reactivity by multiple electrode aggregometry (Multiplate) in unstable angina patients
[3] = Concentrations of ticagrelor and active metabolite AR-C124910XX by LC-MS in unstable angina patients; conditions: for AUC: AUC TPC, total exposure to ticagrelor, area under the ticagrelor plasma concentration curve, 0–360 min; for concentration at 15 min: 15 min post ticagrelor LD 180 mg; for concentration at 30 min: 30 min post ticagrelor LD 180 mg; for concentration at 45 min: 45 min post ticagrelor LD 180 mg; for concentration at 60 min: 60 min post ticagrelor LD 180 mg; for concentration at 120 min: 120 min post ticagrelor LD 180 mg; for concentration at 240 min: 240 min post ticagrelor LD 180 mg; for concentration at 360 min: 360 min post ticagrelor LD 180 mg
[4] = 15 min post ticagrelor LD 180 mg, MEA
[5] = 30 min post ticagrelor LD 180 mg, MEA
[6] = 45 min post ticagrelor LD 180 mg, MEA
[7] = 60 min post ticagrelor LD 180 mg, MEA
[8] = 120 min post ticagrelor LD 180 mg, MEA
[9] = 180 min post ticagrelor LD 180 mg, MEA
[10] = 240 min post ticagrelor LD 180 mg, MEA
[11] = time to reach low platelet reactivity after ticagrelor LD, MEA
[12] = 0–360 min post ticagrelor LD 180 mg
[13] = human, plasma, oral, 180 mg, Ticagrelor plasma concentration, Mean ± SD
[14] = human, plasma, oral, 180 mg, Ticagrelor plasma concentration, Median (Q1–Q3)

Q: For `COC(F)(F)C(Cl)Cl` [methoxyflurane], which “ADP-induced canine platelet aggregation” value [1] is on record?
A: significant reduction

Q: What about the “effect on platelet reactivity” value ([2]; methoxyflurane added to ticagrelor LD vs ticagrelor alone, MEA AUC) of the same molecule?
A: inhibitory effect

Q: For `FC(F)(F)C(Cl)Br` (stereo not drawn) [halothane], which “ADP-induced canine platelet aggregation” value [1] is on record?
A: significant reduction

Q: With `CCCSc1nc(N[C@@H]2C[C@H]2c2ccc(F)c(F)c2)c2nnn([C@@H]3C[C@H](OCCO)[C@@H](O)[C@H]3O)c2n1` [Ticagrelor, ticagrelor] as the molecule, how does the “AUC 15 (platelet reactivity), Mean ± SD” value [2, 4] read?
A: 66.08 ± 26.54 U

Q: What about the “AUC 15 (platelet reactivity), Median (Q1–Q3)” value [2, 4] of the same molecule?
A: 66 (48–87) U

Q: What about the “AUC 30 (platelet reactivity), Mean ± SD” value [2, 5] of the same molecule?
A: 47.76 ± 27.79 U

Q: And the “AUC 30 (platelet reactivity), Median (Q1–Q3)” value [2, 5]?
A: 36 (27–66) U

Q: What about the “AUC 45 (platelet reactivity), Mean ± SD” value [2, 6] of the same molecule?
A: 34.56 ± 22.95 U

Q: And the “AUC 45 (platelet reactivity), Median (Q1–Q3)” value [2, 6]?
A: 28 (17–36) U

Q: What about the “AUC 60 (platelet reactivity), Mean ± SD” value [2, 7] of the same molecule?
A: 26.64 ± 17.75 U

Q: What about the “AUC 60 (platelet reactivity), Median (Q1–Q3)” value [2, 7] of the same molecule?
A: 26 (16–32) U

Q: What about the “AUC 120 (platelet reactivity), Mean ± SD” value [2, 8] of the same molecule?
A: 21.6 ± 13.37 U

Q: And the “AUC 120 (platelet reactivity), Median (Q1–Q3)” value [2, 8]?
A: 21 (17–25) U

Q: And the “AUC 180 (platelet reactivity), Mean ± SD” value [2, 9]?
A: 21.32 ± 12.03 U

Q: What about the “AUC 180 (platelet reactivity), Median (Q1–Q3)” value [2, 9] of the same molecule?
A: 22 (13–28) U

Q: And the “AUC 240 (platelet reactivity), Mean ± SD” value [2, 10]?
A: 23.76 ± 16.86 U

Q: And the “AUC 240 (platelet reactivity), Median (Q1–Q3)” value [2, 10]?
A: 22 (17–26) U

Q: And the “AUC 360 (platelet reactivity), Median (Q1–Q3)” value ([2]; 360 min post ticagrelor LD 180 mg, MEA)?
A: 19 (12–25) U

Q: What about the “AUC 0 (platelet reactivity), Median (Q1–Q3)” value ([2]; baseline, MEA, UA patients) of the same molecule?
A: 73 (54–95) U

Q: And the “AUC 0 (platelet reactivity, area under the aggregation curve), Mean ± SD” value ([2]; baseline, MEA, UA patients)?
A: 76.36 ± 21.82 U

Q: What about the “Time to AUC < 46 U, Mean ± SD” value [2, 11] of the same molecule?
A: 43.8 ± 46.42

Q: What about the “Time to AUC < 46 U, Median (Q1–Q3)” value [2, 11] of the same molecule?
A: 30 (30–45)

Q: And the “Ticagrelor maximum concentration, Mean ± SD” value [3, 12]?
A: 699 ± 257 ng/mL

Q: What about the “Ticagrelor maximum concentration, Median (Q1–Q3)” value [3, 12] of the same molecule?
A: 680 (514–800) ng/mL

Q: What about the “Ticagrelor plasma concentration, Mean ± SD” value ([3]; baseline) of the same molecule?
A: 0 ng/mL

Q: What about the “Ticagrelor plasma concentration, Median (Q1–Q3)” value ([3]; baseline) of the same molecule?
A: 0 ng/mL

Q: And the AUC ([3]; human, plasma, oral, 180 mg, Mean ± SD)?
A: 2.31 µg·h/mL

Q: What about the AUC ([3]; human, plasma, oral, 180 mg, Median (Q1–Q3)) of the same molecule?
A: 2.07 µg·h/mL

Q: What about the concentration at 15 min [3, 13] of the same molecule?
A: 0.02 ± 0.029 µg/mL

Q: What about the concentration at 30 min [3, 13] of the same molecule?
A: 0.171 ± 0.237 µg/mL

Q: What about the concentration at 45 min [3, 13] of the same molecule?
A: 0.329 ± 0.353 µg/mL

Q: And the concentration at 60 min [3, 13]?
A: 0.464 ± 0.379 µg/mL

Q: What about the concentration at 120 min [3, 13] of the same molecule?
A: 0.533 ± 0.243 µg/mL

Q: And the concentration at 240 min [3, 13]?
A: 0.404 ± 0.136 µg/mL

Q: What about the concentration at 360 min [3, 13] of the same molecule?
A: 0.291 ± 0.094 µg/mL

Q: And the concentration at 15 min [3, 14]?
A: 0.013 µg/mL

Q: And the concentration at 30 min [3, 14]?
A: 0.069 µg/mL

Q: And the concentration at 45 min [3, 14]?
A: 0.21 µg/mL

Q: And the concentration at 60 min [3, 14]?
A: 0.316 µg/mL

Q: What about the concentration at 120 min [3, 14] of the same molecule?
A: 0.569 µg/mL

Q: What about the concentration at 180 min ([3]; human, plasma, oral, 180 mg, Ticagrelor plasma concentration, Median (Q1–Q3), 180 min post ticagrelor LD 180 mg) of the same molecule?
A: 0.453 µg/mL

Q: What about the concentration at 240 min [3, 14] of the same molecule?
A: 0.402 µg/mL

Q: What about the concentration at 360 min [3, 14] of the same molecule?
A: 0.29 µg/mL

Q: Which “ADP-induced canine platelet aggregation” value [1] does the source give for `CCOCC` [diethyl ether] here?
A: significant reduction

Q: For `[N-]=[N+]=O` [nitrous oxide], which “ADP-induced canine platelet aggregation” value [1] is on record?
A: significant reduction
